# Measured values published in patent US4051253A, “Microbicidal nitrofuryl compounds” (Byk Gulden Lomberg Chemische Fabrik GmbH, priority 1974, dated 1977).
# Where two headings read alike, the source gives them in different places.
# Assays:
# Ps. aeruginosa 2 = assay: microbe, parasite or virus in culture; assay type: cell-based; conditions: for MIC: read-out: Minimum inhibiting concentration (MHK), series dilution test
# in vivo = conditions: mouse
# Staph. aur. SG 511 = assay: microbe, parasite or virus in culture; assay type: cell-based; conditions: for MIC: read-out: Minimum inhibiting concentration (MHK), series dilution test
# streptococci group A 807 = assay: microbe, parasite or virus in culture; assay type: cell-based; conditions: for MIC: read-out: Minimum inhibiting concentration (MHK), series dilution test
# Trichomonas foetus = assay: Infection tests with Trichomonas foetus in mice; assay type: in vivo; conditions: for % of Animals Dying After Infection (Mean Value): stomach tube, 3 successive days, NMRI mice; for animals survived / survival rate: dose of 6.25 mg/kg, mice infected with T. foetus; for activity against T. foetus compared with metronidazol (in words): infected mice
# Staph. aur. PCI 1203 = assay: microbe, parasite or virus in culture; assay type: cell-based; conditions: for MBC: read-out: Concentration from which subcultures no longer started; for MIC: read-out: Minimum inhibiting concentration (MHK), series dilution test
# streptoc. group B 779 = assay: microbe, parasite or virus in culture; assay type: cell-based; conditions: for MBC: read-out: Concentration from which subcultures no longer started; for MIC: read-out: Minimum inhibiting concentration (MHK), series dilution test
# streptococci group C 805 = assay: microbe, parasite or virus in culture; assay type: cell-based; conditions: for MBC: read-out: Concentration from which subcultures no longer started; for MIC: read-out: Minimum inhibiting concentration (MHK), series dilution test
# Klebs. pneum. PCI 602 = assay: microbe, parasite or virus in culture; assay type: cell-based; conditions: for MBC: read-out: Concentration from which subcultures no longer started; for MIC: read-out: Minimum inhibiting concentration (MHK), series dilution test
# E. coli 6106 = assay: microbe, parasite or virus in culture; assay type: cell-based; conditions: for MIC: read-out: Minimum inhibiting concentration (MHK), series dilution test
# [1] = system: Serratia marcescens strain HY/a 21
# [2] = system: 9 bacteria and 2 yeast strains; assay: In vitro tests with 9 bacteria and 2 yeast strains (summary); assay type: cell-based; conditions: Table 2
# C. Albicans 49 = assay: microbe, parasite or virus in culture; assay type: cell-based; conditions: Candida albicans; for MIC: read-out: Minimum inhibiting concentration (MHK), series dilution test
# C. Paracrusei 45 = assay: microbe, parasite or virus in culture; assay type: cell-based; conditions: for MBC: read-out: Concentration from which subcultures no longer started; for MIC: read-out: Minimum inhibiting concentration (MHK), series dilution test
# enterococci = assay: microbe, parasite or virus in culture; assay type: cell-based; conditions: for MIC: read-out: Minimum inhibiting concentration (MHK), series dilution test
# [3] = subcultures applied after 48 h, read after 24 h
# [4] = 24 h, read-out: Concentration from which subcultures no longer started, subcultures applied after 24 h, read after 24 h
# [5] = 48 h, read-out: Concentration from which subcultures no longer started, subcultures applied after 48 h, read after 48 h
# [6] = read-out: Concentration from which subcultures no longer started, subcultures applied after 24 h, read after 48 h
# [7] = read-out: Concentration from which subcultures no longer started, subcultures applied after 48 h, read after 24 h
smiles,measurement,setting,value
"Cc1ccccc1C(=O)NN=CC=Cc1ccc([N+](=O)[O-])o1 [A, 5-nitro-2-[(o-toluoylhydrazono)propen-1-yl]furan]",MBC,"Ps. aeruginosa 2; Pseudomonas aeruginosa, 2, 24 h, read-out: Concentration from which subcultures no longer started",250 µg/mL
same,MIC,"Ps. aeruginosa 2; Pseudomonas aeruginosa, 2, 24 h",250 µg/mL
same,MBC,"Ps. aeruginosa 2; Pseudomonas aeruginosa, 2, 48 h, read-out: Concentration from which subcultures no longer started",250 µg/mL
same,MIC,"Ps. aeruginosa 2; Pseudomonas aeruginosa, 2, 48 h",250 µg/mL
same,MBC,"Ps. aeruginosa 2; Pseudomonas aeruginosa, 2, read-out: Concentration from which subcultures no longer started",250 µg/mL
same,Concentration from which subcultures no longer started,Ps. aeruginosa 2; [3],250 µg/mL
same,LD50,in vivo,> 2000 mg/kg
same,MBC,Staph. aur. SG 511; [4],125 µg/mL
same,MIC,Staph. aur. SG 511; 24 h,31.2 µg/mL
same,MBC,Staph. aur. SG 511; [5],31.2 µg/mL
same,MIC,Staph. aur. SG 511; 48 h,31.2 µg/mL
same,MBC,Staph. aur. SG 511; [6],125 µg/mL
same,MBC,Staph. aur. SG 511; [7],31.2 µg/mL
same,MBC,streptococci group A 807; [4],125 µg/mL
same,MIC,streptococci group A 807; 24 h,31.2 µg/mL
same,MBC,streptococci group A 807; [5],125 µg/mL
same,MIC,streptococci group A 807; 48 h,31.2 µg/mL
same,MBC,streptococci group A 807; [6],125 µg/mL
same,MBC,streptococci group A 807; [7],62.5 µg/mL
same,% of Animals Dying After Infection (Mean Value),Trichomonas foetus; 3.12 mg/kg,91.66%
same,% of Animals Dying After Infection (Mean Value),Trichomonas foetus; 6.25 mg/kg,36.33%
same,% of Animals Dying After Infection (Mean Value),Trichomonas foetus; 12.5 mg/kg,3.33%
same,animals survived / survival rate,Trichomonas foetus,63.3%
same,activity against T. foetus compared with metronidazol (in words),Trichomonas foetus,substantially better activity in mice infected with T. foetus
same,"Mutants/ml, Test",S. typhimurium G 46; 200 mg/kg per os,0 Mutants/ml
same,"Mutants/ml, Test",S. typhimurium G 46; 400 mg/kg per os,0 Mutants/ml
same,"mutagenicity, host mediated assay (in words)",S. typhimurium G 46; Table 3b,no mutants induced by A are observed
same,Mutation frequency in test animals,S. typhimurium G 46; in vivo,0
same,MBC,Staph. aur. PCI 1203; 24 h,31.2 µg/mL
same,MIC,Staph. aur. PCI 1203; 24 h,15.6 µg/mL
same,MBC,Staph. aur. PCI 1203; 48 h,31.2 µg/mL
same,MIC,Staph. aur. PCI 1203; 48 h,31.2 µg/mL
same,MBC,Staph. aur. PCI 1203,31.2 µg/mL
same,Concentration from which subcultures no longer started,Staph. aur. PCI 1203; [3],31.25 µg/mL
same,MBC,streptoc. group B 779; 24 h,500 µg/mL
same,MIC,streptoc. group B 779; 24 h,250 µg/mL
same,MBC,streptoc. group B 779; 48 h,500 µg/mL
same,MIC,streptoc. group B 779; 48 h,500 µg/mL
same,MBC,streptoc. group B 779,500 µg/mL
same,Concentration from which subcultures no longer started,streptoc. group B 779; [3],500 µg/mL
same,MBC,streptococci group C 805; 24 h,500 µg/mL
same,MIC,streptococci group C 805; 24 h,250 µg/mL
same,MBC,streptococci group C 805; 48 h,500 µg/mL
same,MIC,streptococci group C 805; 48 h,250 µg/mL
same,MBC,streptococci group C 805,500 µg/mL
same,Concentration from which subcultures no longer started,streptococci group C 805; [3],500 µg/mL
same,MBC,Klebs. pneum. PCI 602; 24 h,31.2 µg/mL
same,MIC,Klebs. pneum. PCI 602; 24 h,7.8 µg/mL
same,MBC,Klebs. pneum. PCI 602; 48 h,31.2 µg/mL
same,MIC,Klebs. pneum. PCI 602; 48 h,7.8 µg/mL
same,MBC,Klebs. pneum. PCI 602,31.2 µg/mL
same,Concentration from which subcultures no longer started,Klebs. pneum. PCI 602; [3],31.25 µg/mL
same,MBC,"E. coli 6106; Escherichia coli, 6106, 24 h, read-out: Concentration from which subcultures no longer started",62.5 µg/mL
same,MIC,"E. coli 6106; Escherichia coli, 6106, 24 h",31.2 µg/mL
same,MBC,"E. coli 6106; Escherichia coli, 6106, 48 h, read-out: Concentration from which subcultures no longer started",62.5 µg/mL
same,MIC,"E. coli 6106; Escherichia coli, 6106, 48 h",62.5 µg/mL
same,MBC,"E. coli 6106; Escherichia coli, 6106, read-out: Concentration from which subcultures no longer started",62.5 µg/mL
same,Concentration from which subcultures no longer started,E. coli 6106; [3],62.5 µg/mL
same,Mutation frequency,[1],0
same,"mutagenicity, spot test (in words)",[1]; Table 3a,no mutants induced by A are observed
same,in vitro antibacterial/antiyeast effect compared with metronidazol (in words),[2],substantially more favorable picture
same,MBC,C. Albicans 49; [4],62.5 µg/mL
same,MIC,C. Albicans 49; 24 h,62.5 µg/mL
same,MBC,C. Albicans 49; [5],125 µg/mL
same,MIC,C. Albicans 49; 48 h,62.5 µg/mL
same,MBC,C. Albicans 49; [6],62.5 µg/mL
same,MBC,C. Albicans 49; [7],125 µg/mL
same,MBC,C. Paracrusei 45; 24 h,125 µg/mL
same,MIC,C. Paracrusei 45; 24 h,62.5 µg/mL
same,MBC,C. Paracrusei 45; 48 h,125 µg/mL
same,MIC,C. Paracrusei 45; 48 h,125 µg/mL
same,MBC,C. Paracrusei 45,125 µg/mL
same,Concentration from which subcultures no longer started,C. Paracrusei 45; [3],125 µg/mL
same,MBC,enterococci; [4],250 µg/mL
same,MIC,enterococci; 24 h,62.5 µg/mL
same,MBC,enterococci; [5],500 µg/mL
same,MIC,enterococci; 48 h,250 µg/mL
same,MBC,enterococci; [6],250 µg/mL
same,MBC,enterococci; [7],500 µg/mL
"CCc1ccccc1C(=O)NN=CC=Cc1ccc([N+](=O)[O-])o1 [B, 2-[(o-ethylbenzoylhydrazono)propen-1-yl]-5-nitrofuran]",LD50,in vivo,> 2000 mg/kg
same,% of Animals Dying After Infection (Mean Value),Trichomonas foetus; 1.56 mg/kg,86%
same,% of Animals Dying After Infection (Mean Value),Trichomonas foetus; 3.12 mg/kg,62%
same,% of Animals Dying After Infection (Mean Value),Trichomonas foetus; 6.25 mg/kg,46%
same,% of Animals Dying After Infection (Mean Value),Trichomonas foetus; 12 mg/kg,6%
same,% of Animals Dying After Infection (Mean Value),Trichomonas foetus; 25 mg/kg,0%
same,animals survived / survival rate,Trichomonas foetus,54%
same,activity against T. foetus compared with metronidazol (in words),Trichomonas foetus,substantially better activity in mice infected with T. foetus
